Consider 4 compounds from patent publication US6040307A, “Methods ad compositions of (-) ketoconazole for treating fungal yeast and dermatophyte infections” (priority 1999, dated 2000).

Entries after “also recorded” stand apart in the source; their conditions may differ.

The subject of one data set is patients. The conditions noted are these: human, in vivo; cited from earlier work.
Data set [1] relates to microsporum canis, trichophyton mentagrophytes, candida tropicalis, candida albicans, and other fungi and bacteria. The following applies: cited from earlier work.
For data set [2] the following is noted: in vivo, po; cited from earlier work.
For data set [3], the system named is isolated guinea pig hearts. The data set can be described thus: QT duration and action potential duration in isolated guinea pig hearts, perfused with oxygenated Tyrode's solution. The protocol:
The hearts were perfused with an oxygenated Tyrode's solution, containing 0.0; 1.0; 5.0 or 10.0 μM of ketoconazole. QT duration and action potential duration (APD) were measured from cardiac electrodes. APD was measured at 50% (APD-50) and 90% (APD-90). In the table, "N" is the number of hearts, and QT and APD are measured in milliseconds.

In another data set the test system is synthesis of ergosterol. The conditions noted are these: fungal cell membranes; cited from earlier work.
A further data set has as its system liver. The conditions noted are these: cited from earlier work.
For another data set, the system named is delayed rectifier (Ik). The following applies: cited from earlier work.
Another data set concerns cardiac repolarization. The following applies: in vivo; cited from earlier work.
Where [4] appears, read: of 75 cases adequately followed up.

As to `CC(=O)N1CCN(c2ccc(OCC3COC(Cn4ccnc4)(c4ccc(Cl)cc4Cl)O3)cc2)CC1` (racemic) [Ketoconazole, 1-acetyl-4-[4-[[2-(2,4-dichlorophenyl)-2-(1H-imidazole-1-ylmethyl)-1,3-dioxolan-4-yl]methoxy]phenyl]piperazine], in the data set on patients, the “gastrointestinal side effects, occurrence in patients” value is on record as 5-10 % of patients. Moreover, in the data set with patients, the torsades de pointes entry was “torsades de pointes, has been reported”. In addition, in data set [1] (Sabouraud broth containing 10% inactivated bovine serum), the “effect of 10% inactivated bovine serum on antifungal activity” value is “enhanced”. Also, the inhibition of growth result in data set [1] (Sabouraud broth, 14 days of incubation) is recorded as “Complete or marked inhibition of growth”. Also, the “major route of excretion” value in data set [2] was “via the bile into the intestinal tract”. Also, the metabolism entry in data set [2] is “eventually metabolized to several inactive metabolites”. Moreover, in data set [2], the serum concentration entry is given as “a linear increase in serum concentration”. The APD-50 in data set [3] (1.0 μM, N = 2 hearts, baseline 145 ± 5) amounted to 149 ± 1 milliseconds; in data set [3] (5.0 μM, N = 3 hearts, baseline 147 ± 5), 163 ± 5 milliseconds; in data set [3] (10.0 μM, N = 3 hearts, baseline 140 ± 8), 173 ± 2 milliseconds. The APD-90 turned out to be 195 ± 5 milliseconds in data set [3] (1.0 μM, N = 2 hearts, baseline 185 ± 10); 221 ± 8 milliseconds in data set [3] (5.0 μM, N = 3 hearts, baseline 187 ± 9); 233 ± 9 milliseconds in data set [3] (10.0 μM, N = 3 hearts, baseline 177 ± 14). Moreover, the QT in data set [3] (1.0 μM, N = 2 hearts, baseline 230 ± 10) is 232 ± 9 milliseconds; in data set [3] (5.0 μM, N = 3 hearts, baseline 233 ± 9), 261 ± 8 milliseconds. Further, the “QT duration and action potential duration (in words)” value in data set [3] (isolated guinea pig hearts) is “increases QT duration and action potential duration”. Besides, in data set [3] (isolated guinea pig hearts, listed as racemic ketoconazole), the “arrhythmogenic effect (in words)” value was “may be associated with an increased risk of cardiac arrhythmia; also recorded: indicative of a potential arrhythmogenic effect”. In the data set on synthesis of ergosterol, the synthesis of ergosterol entry is reported as “impairs the synthesis of ergosterol”. Also, the reports of hepatotoxicity with liver (1981-1984, United Kingdom) is reported as 82 reports. The “time for liver function tests to return to normal after treatment was stopped (average)” value with liver (average) is given as 3.1 months. Besides, the “hepatocellular injury suggested by serum liver function tests” value in the data set with liver (in vivo) was 10 of the 16. Further, the “deaths among the cases probably related to treatment” value in the data set with liver (of 16 cases) was 3 deaths. Besides, the “cases possibly related to treatment” value in the data set with liver (setting [4]) was 48 cases. Besides, the “cases probably related to treatment” value with liver (setting [4]) is reported as 16 cases. In addition, the “deaths among the reports of hepatotoxicity” value in the data set with liver (of 82 reports) is reported as 5 deaths.
Consider `CCN(CC)CCNC(=O)c1ccc(NC(C)=O)cc1` [acetyl-procainamide], for which the “block of cellular potassium channel delayed rectifier (Ik)” value (“block” for short) in the data set with delayed rectifier (Ik) is given as “block a cellular potassium channel called the delayed rectifier (Ik)”. Moreover, in the data set with cardiac repolarization, the “prolongation of cardiac repolarization” value is given as “cause a prolongation of cardiac repolarization” and the “torsades de pointes (side effect)” value is reported as “well known side effect”.
As for `C=C[C@H]1C[N@@]2CC[C@H]1C[C@@H]2[C@@H](O)c1ccnc2ccc(OC)cc12` [quinidine], the “block” value with delayed rectifier (Ik) is reported as “block a cellular potassium channel called the delayed rectifier (Ik)”. Moreover, in the data set on cardiac repolarization, the “prolongation of cardiac repolarization” value is listed as “cause a prolongation of cardiac repolarization” and the “torsades de pointes (side effect)” value is “well known side effect”.
As for `CC(C)NCC(O)c1ccc(NS(C)(=O)=O)cc1` (stereo not shown) [sotalol], in the data set with delayed rectifier (Ik), the “block” value was “block a cellular potassium channel called the delayed rectifier (Ik)”. In addition, in the data set with cardiac repolarization, the “prolongation of cardiac repolarization” value is reported as “cause a prolongation of cardiac repolarization” and the “torsades de pointes (side effect)” value was “well known side effect”.
